Assay results: ChEMBL document CHEMBL3120161, “Antimycobacterial activity of nitrogen heterocycles derivatives: bipyridine derivatives. Part III” (Eur J Med Chem, 2014)
In brackets after ≈: the same amount, converted by molar mass.

Columns and labels:
Type in all cases: functional
[1] = test system: Mycobacterium tuberculosis; experiment: Antimycobacterial activity against isoniazid-resistant Mycobacterium tuberculosis H37Rv SRI 1369 at MIC after 7 days by broth microdilution assay relative to control
[2] = test system: Mycobacterium tuberculosis; experiment: Antimycobacterial activity against rifampin-resistant Mycobacterium tuberculosis H37Rv SRI 1367 after 7 days by broth microdilution assay; conditions: H37Rv SRI 1367, 168 h
[3] = test system: Mycobacterium tuberculosis; experiment: Antimycobacterial activity against rifampin-resistant Mycobacterium tuberculosis H37Rv SRI 1367 at MIC after 7 days by broth microdilution assay relative to control
[4] = test system: Mycobacterium tuberculosis; experiment: Antimycobacterial activity against ofloxacin-resistant Mycobacterium tuberculosis H37Rv SRI 4000 at MIC after 7 days by broth microdilution assay relative to control
[5] = test system: Mycobacterium tuberculosis; experiment: Antimycobacterial activity against isoniazid-resistant Mycobacterium tuberculosis H37Rv SRI 1369 after 7 days by broth microdilution assay; conditions: H37Rv SRI 1369, 168 h
[6] = test system: Mycobacterium tuberculosis; experiment: Antimycobacterial activity against ofloxacin-resistant Mycobacterium tuberculosis H37Rv SRI 4000 after 7 days by broth microdilution assay; conditions: H37Rv SRI 4000, 168 h

Compound | inhibition (INH) [1] | MIC [2] | inhibition (INH) [3] | inhibition (INH) [4] | MIC [5] | MIC [6]
CCOC(=O)c1cc(C(=O)c2ccccc2)n2ccc(-c3cc[n+](CC(=O)c4ccc(OC)cc4)cc3)cc12.[Br-] | 60% | 1.17 µg/mL | 65% | 61% | 4.69 µg/mL | 1.17 µg/mL
NNC(=O)c1ccncc1 [ISONIAZID] | – | 0.02 µg/mL (≈ 0.146 µM) | 92% | – | – | –
CO[C@H]1/C=C/O[C@@]2(C)Oc3c(C)c(O)c4c(O)c(c(/C=N/N5CCN(C)CC5)c(O)c4c3C2=O)NC(=O)/C(C)=C\C=C\[C@H](C)[C@H](O)[C@@H](C)[C@@H](O)[C@@H](C)[C@H](OC(C)=O)[C@@H]1C [RIFAMPIN] | 56% | – | – | 80% | 0.02 µg/mL (≈ 0.0243 µM) | 0.05 µg/mL (≈ 0.0608 µM)
